From patent US20120309699A1, “COMPOUNDS HAVING ANTI-INFLAMMATORY ACTIVITY” (Consejo Superior de Investigaciones Cientificas (CSIC), priority 2009, published 2012)

Legend:
Myeloperoxidase (MPO) = experiment: Myeloperoxidase activity in colonic mucosa (DSS model); type: in vivo, mice; settings: after DSS; HED 10 mg
Procedure: (§1) A model for intestinal inflammation based on the administration of DSS (sodium dextran sulfate) to C57BL/6 mice was used. At the present time there is no consensus about which overall is the best model for experimental colitis. The DSS model has been widely used because it has clinical, morphological and analytical characteristics which up to a point are similar to those specific to patients with ulcerative colitis or Crohn's disease.
(§2) The in vivo inflammation test was carried out using duplicates separated by a number of months. In each test each group of animals (n=8) was fed a standard diet supplemented with 2.3 mg/day/kg (animal weight) of each of the compounds, depending upon the group. […]
(§3) • Monitoring of weight, food and drink ingestion. The mice in all groups were individually monitored, with weight, quantity of food ingested and water drunk each day being monitored throughout the experimental test. • Blood and water in feces. The water content of feces, as an indication of diarrhea, was evaluated using the difference in weight following evaporation in a stove. Blood was measured using reactive strips based on the guaiacol-peroxidase reaction (HealthCare Diagnosis Inc.). […] The reaction was measured using a scale from 0 (negative result) to 4 (most intense color change). • Length of colon. After sacrifice the colon was obtained from each mouse, extended and measured. […]

fibrinogen = experiment: Systemic inflammation marker fibrinogen (DSS model); type: in vivo, mice; settings: vs DSS group; HED 10 mg
Procedure: as §1
(§4) The in vivo inflammation test was carried out using duplicates separated by a number of months. In each test each group of animals (n=8) was fed a standard diet supplemented with 2.3 mg/day/kg (animal weight) of each of the compounds, depending upon the group. This dose assumes the ingestion of 0.05 mg/day (50 μg/day) per mouse (having a mean weight of 22 grams). This dose extrapolated to a human being is equivalent to 10 mg in an adult weighing 70 kg; using the formula HED (human equivalent dose)=animal dose in mg/kg×(animal weight kg/human weight in kg)^0.33.
In each test the mice were fed for 3 weeks during which 1% DSS was included in their drink. The DSS was maintained for 8 days (and the same food as from the start). Then the DSS was withdrawn and the animals were allowed to recover for another 6 days (again with the same food).
• Monitoring of weight, food and drink ingestion. The mice in all groups were individually monitored, with weight, quantity of food ingested and water drunk each day being monitored throughout the experimental test. • Blood and water in feces. The water content of feces, as an indication of diarrhea, was evaluated using the difference in weight following evaporation in a stove. Blood was measured using reactive strips based on the guaiacol-peroxidase reaction (HealthCare Diagnosis Inc.). […] The reaction was measured using a scale from 0 (negative result) to 4 (most intense color change). • Length of colon. After sacrifice the colon was obtained from each mouse, extended and measured. […] This was evaluated by spectrophotometry at 460 nm using O-dianisidine reagent and hydrogen peroxide. The change in absorbance at 460 nm was monitored over 10 minutes in a V-630 spectrophotometer (Jasco, Tokyo, Japan). MPO activity was expressed as mU of activity/mg of fresh tissue, comparing the increase in absorbance with a standard straight line obtained using leukocyte myeloperoxidase (Sigma). • Prostaglandins in colonic mucosa. Levels of PGE2 were measured in colonic mucosa homogenates using an immunoenzyme method using a Cayman Chem. kit (USA). • “Antibody array”. […] The signal was detected by chemoluminescence. […] Signal intensities (densitometry) were analyzed using ScanAlyze software. […] The changes in cytokine levels were expressed as mean±SD in arbitrary density units. […]

[1] = test system: TNFR1 (Tumor necrosis factor receptor, CD120a); experiment: Antibody array in colonic mucosa: TNFR1 (DSS model); type: in vivo, mice; settings: after 8 days DSS, without recovery period; HED 10 mg
Procedure: as §1, §2, §3

[2] = test system: Listeria monocytogenes Scott A; experiment: Adhesion of L. monocytogenes to Caco-2 cells; type: cell-based, human; settings: Caco-2, 25 μM/well; in comparison with resveratrol and the other derivatives
Procedure: We used two cell models for colon cancer to evaluate the anti-adhesion capacity of compounds derived from resveratrol against pathogenic bacteria in food: Caco-2 (a model frequently used to measure the adhesion of microorganisms) and HT-29 (a model frequently used to measure immune response to infections by enteropathogens). Caco-2 and HT-29 cells were grown in EMEM and DMEM respectively, for which 24 well plates were used at 37° C., 5% CO2, 95% air until a single layer of confluent epithelium formed (cell concentration per well 2×10^5 and 6×10^5 respectively). Pathogenic bacteria (E. coli O157, Salmonella and Listeria monocytogenes Scott A) were placed in contact with the various compounds derived from resveratrol for 1 hour and subsequently the bacteria together with the different compounds in a concentration of 25 μM/well were inoculated on the cell cultures, incubating the plates for 2 hours at 37° C., 5% CO2, 95% air. The plates were then washed 3 times with 1 ml of sterile PBS and 1 ml of distilled water with 20% of glycerol was added, and they were frozen at −70° C. to lyse the epithelial cells. […] Concentrations of the various derivatives tested were detected in the digestive tracts of experimental animals and therefore the test lay within the range of physiologically achievable concentrations.

enterobacteria = experiment: Microbiota counts in feces: enterobacteria; type: in vivo, mice; settings: after administration of DSS; HED 10 mg
Procedure: as §1
as §4, with “kg)^0.33. […]” for “kg)^0.33.”
• Monitoring of weight, food and drink ingestion. The mice in all groups were individually monitored, with weight, quantity of food ingested and water drunk each day being monitored throughout the experimental test. • Blood and water in feces. The water content of feces, as an indication of diarrhea, was evaluated using the difference in weight following evaporation in a stove. Blood was measured using reactive strips based on the guaiacol-peroxidase reaction (HealthCare Diagnosis Inc.). […] The reaction was measured using a scale from 0 (negative result) to 4 (most intense color change). • Length of colon. After sacrifice the colon was obtained from each mouse, extended and measured. […] This was evaluated by spectrophotometry at 460 nm using O-dianisidine reagent and hydrogen peroxide. The change in absorbance at 460 nm was monitored over 10 minutes in a V-630 spectrophotometer (Jasco, Tokyo, Japan). […] Levels of PGE2 were measured in colonic mucosa homogenates using an immunoenzyme method using a Cayman Chem. kit (USA). • “Antibody array”. […] The signal was detected by chemoluminescence. […]

Structure (SMILES): CCCC(=O)OCC1OC(Oc2cc(O)cc(/C=C/c3ccc(O)cc3)c2)C(O)C(O)C1O [BUT, trans-resveratrol-3-O-(6′-O-butanoyl)-β-D-glucopyranoside]
- Myeloperoxidase activity in colonic mucosa (Myeloperoxidase (MPO)): most obvious fall
- Blood fibrinogen levels (fibrinogen): most notable differences
- Level of TNFR1 in colonic mucosa [1]: values are similar to those for the control mice
- Anti-adhesion efficacy in respect of L. monocytogenes [2]: greater anti-adhesion efficacy
- Enterobacteria count in feces (enterobacteria): clear reduction

Structure (SMILES): CCCCCCCC(=O)OCC1OC(Oc2cc(O)cc(/C=C/c3ccc(O)cc3)c2)C(O)C(O)C1O [OCT, trans-resveratrol-3-O-(6′-O-octanoyl)-β-D-glucopyranoside]
- Myeloperoxidase activity in colonic mucosa (Myeloperoxidase (MPO)): most obvious fall
- Blood fibrinogen levels (fibrinogen): most notable differences
- Level of TNFR1 in colonic mucosa [1]: values are similar to those for the control mice
- Anti-adhesion efficacy in respect of L. monocytogenes [2]: greater anti-adhesion efficacy
- Enterobacteria count in feces (enterobacteria): clear reduction
